Values quoted from earlier work in patent US20240261217A1, “NUTRACEUTICAL GUMMY COMPOSITIONS AND METHOD OF PREVENTING ALCOHOL OVERCONSUMPTION SYMPTOMS” (LiQure, Inc., priority 2023, published 2024).
“Also recorded” adds a separate entry of the source.

Assays:
[1] = test system: acetaldehyde dehydrogenase (ALDH)
liver = conditions: mouse, in vivo
[2] = recent studies
[3] = test system: alcohol dehydrogenase (ADH)
[4] = in vivo
intoxicated mice = conditions: DHM administered to intoxicated mice

## O=C1c2c(O)cc(O)cc2O[C@H](c2cc(O)c(O)c(O)c2)[C@H]1O [DHM, Dihydromyricetin]
[1]
  effect on activity of acetaldehyde dehydrogenase (ALDH): enhances the activity of these enzymes
liver
  effect on alcohol-induced liver damage: can also prevent (and help repair) alcohol-induced liver damage; also recorded: protect the liver from alcohol-induced damage
[2]
  effect on blood alcohol levels: can reduce blood alcohol levels
[3]
  effect on activity of alcohol dehydrogenase (ADH): enhances the activity of these enzymes
During a hangover
  hangover symptoms compared with people who did not take DHM: fewer headaches, less dizziness, less nausea, and less weakness during a hangover
Studies and anecdotal reports, users
  symptoms when taking DHM after drinking alcohol: fewer headaches, less nausea, less vomiting and less anxiety
[4]
  amount found to mitigate symptoms of over-intoxication from alcohol: 100 to 650 mg
Intoxicated mice
  anti-hangover benefits: provide “anti-hangover” benefits
  liver-protection properties: possesses liver-protection properties
